Patent publication US20220145303A1, “FRAGILE X MENTAL RETARDATION PROTEIN INTERFERING OLIGONUCLEOTIDES AND METHODS OF USING SAME” (Nogra Pharma Limited, priority 2019, published 2022)

Tests used:
caspase 3 = experiment: Activated caspase 3 by flow cytometry in CRC cells; type: cell-based, human; details: oligonucleotide 100 nM 36 hours, staurosporin 1 μM, FIGS. 4A, 4B
Description: Immunotools, Friesoythe, Germany) according to the manufacturer's instructions, and incubated with […] of propidium iodide (PI) for 30 min at 4° C. Cells were also transfected with either FMRP sense oligonucleotide or FMRP AS oligonucleotide (final concentration 100 nM) for 36 hours and analyzed for activated caspase 3 and caspase 8. […] Additionally, 36 hours (FIGS. 4F and 4G) or 48 hours post-transfection (FIGS. 4D and 4E), cells were pulsed with […] bromodeoxyuridine for 60 minutes, fixed in 70% cold ethanol, and stored at −20° C. for at least 3 hours. […] Fluorescence was measured using Gallios Flow Cytometer (Beckman Coulter, Life Sciences, Pasadena, Calif., USA) and analyzed using Kaluza software (Beckman Coulter). Viable cells were considered as AV^−/PI^− cells.

DLD-1 cell lines = experiment: Cell cycle distribution by bromodeoxyuridine/PI flow cytometry; type: cell-based, human; details: DLD-1 48 hours (FIGS. 4D, 4E); HCT-116 36 hours (FIGS. 4F, 4G); before induction of cell death
Description: (§1) Cells were transfected with either FMRP antisense oligonucleotide (AS)(final concentration 0.5 nM and 100 nM) or FMRP sense oligonucleotide (S)(final concentration 100 nM). After 24 hours (FIGS. 3E, 3F, 3J and 3K) or 48 hours (FIG. 3H), cells were collected, washed two times in Annexin V (AV) buffer, stained with FITC-AnnexinV (final dilution 1:100; Immunotools, Friesoythe, Germany) according to the manufacturer's instructions, and incubated with […] of propidium iodide (PI) for 30 min at 4° C. Cells were also transfected with either FMRP sense oligonucleotide or FMRP AS oligonucleotide (final concentration 100 nM) for 36 hours and analyzed for activated caspase 3 and caspase 8. As positive and negative controls, cells were treated, respectively, with staurosporin (final concentration 1 μM, Sigma-Aldrich Milan, Italy) or Q-VD-OPh (a pan-caspase inhibitor; final concentration 1 μM) (R&D Systems, Inc, Minneapolis, Minn.). Additionally, 36 hours (FIGS. 4F and 4G) or 48 hours post-transfection (FIGS. 4D and 4E), cells were pulsed with […] bromodeoxyuridine for 60 minutes, fixed in 70% cold ethanol, and stored at −20° C. for at least 3 hours. […] Fluorescence was measured using Gallios Flow Cytometer (Beckman Coulter, Life Sciences, Pasadena, Calif., USA) and analyzed using Kaluza software (Beckman Coulter). […]

caspase 8 = experiment: Activated caspase 8 by flow cytometry in CRC cells; type: cell-based, human; details: oligonucleotide 100 nM 36 hours, FIGS. 4A, 4B
Description: as §1

DLD-1 cells = experiment: Cell death by AnnexinV/PI flow cytometry in DLD-1 cells; type: cell-based, human; details: 24 hours, AS 0.5 nM and 100 nM, FIGS. 3E, 3F
Description: as §1

HCT-116 cells [1] = experiment: Invasion across Matrigel-coated Transwell inserts; type: cell-based, human; details: HCT-116, AS 0.5 nM, 48 hours, vs untreated or sense, FIGS. 8C, 8D
Description: To investigate the role of FMRP in tumor cell migration and invasion, HCT-116 cells were seeded in each side of an Ibidi® culture insert and grown to confluence then left untreated (U) or transfected with sense FMRP oligonucleotide (S) (final concentration 0.5 nM) or antisense FMRP oligonucleotide (AS) (final concentration 0.5 nM). Additionally, HCT-116 cells were seeded in Transwell® inserts precoated with Matrigel®, and either left untreated (U) or transfected with sense oligonucleotide (S) (final concentration 100 nM) or antisense FMRP oligonucleotide (AS) (final concentration 0.5 nM) for 48 hours.

MCC = experiment: Western blot of MCC in HCT-116 cells; type: cell-based, human; details: HCT-116, AS 0.5 nM, 48 hours, vs untreated or sense, FIGS. 9A, 9B
Description: To investigate whether FMRP regulates MCC, a protein known to interact with the E-cadherin/β-catenin complex, HCT-116 cells were left untreated (U) or transfected with sense FMRP oligonucleotide (S) (final concentration 0.5 nM) or antisense FMRP oligonucleotide (AS) (final concentration 0.5 nM) for 48 hours.

RIPK1 = experiment: Western blot of RIPK1 and phospho-RIPK1 after FMRP antisense treatment; type: cell-based; details: human CRC cell lines, 24 hours
Description: (§2) To confirm the association of FMRP with components of the necroptosis pathway, cells were left untreated or transfected with either FMRP antisense oligonucleotide (final concentration 0.5 nM and 100 nM) or FMRP sense oligonucleotide (final concentration 100 nM); incubated with a pMLKL inhibitor (necrosulfonamide, NSA; final concentration 1 μM)(Calbiochem); or a pRIPK1 inhibitor (necrostatinl, NEC1; final concentration 10 μM)(Cayman Chemical, Ann Arbor, Mich. USA). After 24 hours cells were collected and analyzed by Western blot, or stained with FITC-Annexin V and PI for flow cytometry analysis, as previously described in Examples 1-3.

HCT-116 cells [2] = experiment: Cell death by AnnexinV/PI flow cytometry in HCT-116 cells; type: cell-based, human; details: 48 hours, AS 0.5 nM and 100 nM, FIG. 3H
Description: as §1

HCEC-1ct cells = experiment: Cell death by AnnexinV/PI flow cytometry in HCEC-1ct cells; type: cell-based, human; details: 24 hours, AS 0.5 nM and 100 nM, FIGS. 3J, 3K
Description: as §1

β-catenin = experiment: Western blot of β-catenin in HCT-116 cells; type: cell-based, human; details: HCT-116, AS 0.5 nM, 48 hours, vs untreated or sense, FIGS. 8E, 8G
Description: To determine whether FMRP regulates levels of E-cadherin and/or β-catenin, key proteins associated with cellular adhesion, cytoskeletal remodeling, and inhibition of tumor migration and invasion, cells were left untreated (U), or transfected with either FMRP sense (S) oligonucleotide (final concentration 0.5 nM) or FMRP antisense (AS) oligonucleotide (final concentration 0.5 nM) for 48 hours.
Recent studies have described a novel tumor suppressor function of MCC in the regulation of E-cadherin/β-catenin complex-mediated cell-cell adhesion in colorectal cells. To investigate whether MCC mediates the observed increase of E-cadherin and β-catenin expression in HCT-116 cells transfected with antisense FMRP oligonucleotide (e.g., FIGS. 8E-8G), cells were left untreated (U) or transfected with sense FMRP oligonucleotide (final concentration 0.5 nM), or antisense FMRP oligonucleotide (final concentration 0.5 nM), and/or control siRNA (siRNA Ctrl) or siRNA specific for MCC (siRNA MCC) for 48 hours.

RIPK3 = experiment: Western blot of phospho-RIPK3 after FMRP antisense treatment; type: cell-based; details: human CRC cell lines, 24 hours, FIGS. 6A, 6C
Description: as §2

5′-TCCACCACCAGCTCCTCCAT-3′ (all phosphorothioate, sugars by position and methylation of C not given here) [FMRP antisense oligonucleotide, Phosphorothioate single-stranded antisense oligonucleotides complementary to human FMRP]
percentage of activated caspase 3-positive cells (caspase 3): did not alter
relative percentage of cells in G2/M, S, or G0/G1 cell cycle phases (DLD-1 cell lines): did not affect
percentage of activated caspase 8-positive cells (caspase 8): did not alter
number of AnnexinV+ or AnnexinV+ PI+ cells (DLD-1 cells): increased number of AnnexinV^+ or AnnexinV^+ Pt cells
number of cells migrating across Matrigel-coated Transwell insert (HCT-116 cells [1]): significantly reduced migration
MCC protein expression (MCC): significantly increased expression of MCC
total protein expression levels of RIPK1 (RIPK1; AS 0.5 nM and 100 nM, FIG. 6A): increased the total protein expression levels of RIPK1
phosphorylation of RIPK1 (RIPK1; FIGS. 6A, 6B): increased phosphorylation
number of AnnexinV+ or AnnexinV+ PI+ cells (HCT-116 cells [2]): neither HCT-116 cells nor HCRC-1ct cells treated with FMRP antisense oligonucleotide exhibited an increased number
number of AnnexinV+ or AnnexinV+ PI+ cells (HCEC-1ct cells): neither HCT-116 cells nor HCRC-1ct cells treated with FMRP antisense oligonucleotide exhibited an increased number
β-catenin protein expression (β-catenin): significantly increased
phosphorylation of RIPK3 (RIPK3): increased phosphorylation
